{"source": "paper PMC3755730", "about": "(The Journal of neuroscience : the official journal of the …, 2013)", "key": {"[1]": {"target": "N2A (GluN2A), in N1/N2A (A-type) NMDA receptor (Mus musculus, UniProt P35436)", "sequence (P35436 23-1464, other chains not shown)": "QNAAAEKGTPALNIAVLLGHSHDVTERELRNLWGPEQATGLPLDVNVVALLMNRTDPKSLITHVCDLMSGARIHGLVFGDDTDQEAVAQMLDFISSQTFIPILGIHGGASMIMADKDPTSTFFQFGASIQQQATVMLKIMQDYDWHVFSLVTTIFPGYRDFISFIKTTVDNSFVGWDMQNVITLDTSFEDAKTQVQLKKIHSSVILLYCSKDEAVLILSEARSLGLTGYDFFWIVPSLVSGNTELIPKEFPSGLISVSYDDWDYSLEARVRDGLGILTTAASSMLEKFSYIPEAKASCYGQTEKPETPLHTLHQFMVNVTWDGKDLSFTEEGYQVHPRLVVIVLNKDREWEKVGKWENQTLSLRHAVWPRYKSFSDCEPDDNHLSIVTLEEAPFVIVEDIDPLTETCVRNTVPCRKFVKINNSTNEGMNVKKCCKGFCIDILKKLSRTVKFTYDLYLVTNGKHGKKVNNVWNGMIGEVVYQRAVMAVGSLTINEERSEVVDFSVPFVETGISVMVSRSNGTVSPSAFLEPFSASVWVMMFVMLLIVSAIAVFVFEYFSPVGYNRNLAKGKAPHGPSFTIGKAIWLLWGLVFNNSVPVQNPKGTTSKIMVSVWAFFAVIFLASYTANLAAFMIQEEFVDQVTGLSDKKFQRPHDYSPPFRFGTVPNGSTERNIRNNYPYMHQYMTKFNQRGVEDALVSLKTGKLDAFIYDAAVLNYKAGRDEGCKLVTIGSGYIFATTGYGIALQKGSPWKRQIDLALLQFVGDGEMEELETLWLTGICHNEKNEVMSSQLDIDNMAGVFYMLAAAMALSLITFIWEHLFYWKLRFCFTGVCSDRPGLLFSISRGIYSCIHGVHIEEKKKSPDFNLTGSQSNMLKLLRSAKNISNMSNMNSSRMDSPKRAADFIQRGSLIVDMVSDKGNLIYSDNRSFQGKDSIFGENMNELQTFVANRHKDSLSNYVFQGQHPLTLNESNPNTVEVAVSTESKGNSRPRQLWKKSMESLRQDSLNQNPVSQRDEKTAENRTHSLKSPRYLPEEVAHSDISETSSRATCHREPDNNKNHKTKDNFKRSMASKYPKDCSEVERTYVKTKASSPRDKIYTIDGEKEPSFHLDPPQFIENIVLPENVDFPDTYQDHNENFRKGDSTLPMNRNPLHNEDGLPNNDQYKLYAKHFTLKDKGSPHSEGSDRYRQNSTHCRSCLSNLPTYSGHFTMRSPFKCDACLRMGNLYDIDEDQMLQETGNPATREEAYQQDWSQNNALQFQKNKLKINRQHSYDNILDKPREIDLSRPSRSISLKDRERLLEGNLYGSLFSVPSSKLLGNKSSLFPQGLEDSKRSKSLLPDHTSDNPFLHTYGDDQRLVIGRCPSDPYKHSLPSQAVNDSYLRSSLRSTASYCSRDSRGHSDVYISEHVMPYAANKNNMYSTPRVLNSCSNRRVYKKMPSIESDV", "experiment": "whole-cell patch clamp, EPSC dose-inhibition in N2B knockout neurons", "assay_type": "cell-based"}, "[2]": {"target": "N2B (GluN2B), in N1/N2B (B-type) NMDA receptor (Mus musculus, UniProt Q01097)", "sequence (Q01097 27-1482, other chains not shown)": "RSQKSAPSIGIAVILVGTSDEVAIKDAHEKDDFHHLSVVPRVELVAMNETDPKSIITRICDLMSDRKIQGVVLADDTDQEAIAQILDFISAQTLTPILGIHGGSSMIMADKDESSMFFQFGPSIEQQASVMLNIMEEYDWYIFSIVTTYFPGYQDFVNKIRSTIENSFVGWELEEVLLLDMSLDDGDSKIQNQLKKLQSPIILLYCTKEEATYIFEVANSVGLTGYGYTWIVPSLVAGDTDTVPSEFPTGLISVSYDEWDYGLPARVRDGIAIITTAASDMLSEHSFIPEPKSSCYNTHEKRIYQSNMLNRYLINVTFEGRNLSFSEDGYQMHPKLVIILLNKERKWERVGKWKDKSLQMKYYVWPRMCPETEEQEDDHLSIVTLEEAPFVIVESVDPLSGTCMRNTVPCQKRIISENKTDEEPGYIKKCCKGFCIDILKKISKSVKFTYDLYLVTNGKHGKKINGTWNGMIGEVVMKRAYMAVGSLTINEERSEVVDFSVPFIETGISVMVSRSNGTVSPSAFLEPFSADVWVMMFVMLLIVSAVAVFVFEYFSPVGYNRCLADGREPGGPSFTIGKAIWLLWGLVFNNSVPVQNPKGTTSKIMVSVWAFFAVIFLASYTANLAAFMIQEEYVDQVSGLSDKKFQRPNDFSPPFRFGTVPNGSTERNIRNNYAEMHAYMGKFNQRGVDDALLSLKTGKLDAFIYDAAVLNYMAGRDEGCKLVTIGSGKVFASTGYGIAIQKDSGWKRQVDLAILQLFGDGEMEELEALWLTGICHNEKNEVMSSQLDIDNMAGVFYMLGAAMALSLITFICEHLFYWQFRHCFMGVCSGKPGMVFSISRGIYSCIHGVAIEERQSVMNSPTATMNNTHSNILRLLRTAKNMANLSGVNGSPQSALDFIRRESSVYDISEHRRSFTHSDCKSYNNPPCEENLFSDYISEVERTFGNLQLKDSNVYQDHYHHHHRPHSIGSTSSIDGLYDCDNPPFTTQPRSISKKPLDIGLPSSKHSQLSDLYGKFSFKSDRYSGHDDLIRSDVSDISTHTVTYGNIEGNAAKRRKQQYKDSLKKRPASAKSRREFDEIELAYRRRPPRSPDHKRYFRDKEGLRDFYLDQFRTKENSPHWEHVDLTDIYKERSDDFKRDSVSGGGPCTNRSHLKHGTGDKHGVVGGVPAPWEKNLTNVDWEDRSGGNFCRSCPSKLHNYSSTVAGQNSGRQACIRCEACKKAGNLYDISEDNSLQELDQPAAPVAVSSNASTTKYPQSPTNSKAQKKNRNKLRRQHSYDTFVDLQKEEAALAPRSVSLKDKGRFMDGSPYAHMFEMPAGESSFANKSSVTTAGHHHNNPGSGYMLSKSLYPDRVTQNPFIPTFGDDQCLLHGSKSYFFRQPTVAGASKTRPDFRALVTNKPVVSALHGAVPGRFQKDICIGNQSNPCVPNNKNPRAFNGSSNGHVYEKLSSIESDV", "experiment": "whole-cell patch clamp, EPSC dose-inhibition in N2A knockout neurons", "assay_type": "cell-based"}}}
{"smiles": "C[C@H](N[C@@H](c1cccc2[nH]c(=O)c(=O)[nH]c12)P(=O)(O)O)c1ccc(Br)cc1", "note": "[NVP-AAM077]", "values": [{"measurement": "IC50", "setting": "[1]", "result": 0.01, "unit": "µM"}, {"measurement": "IC50", "setting": "[2]", "result": 0.119, "unit": "µM"}]}
